Data from patent publication US20160367464A1, “METHOD AND COMPOSITION FOR IMPROVING SKIN CONDITIONS COMPRISING HUMAN PLACENTAL LACTOGEN AS AN ACTIVE INGREDIENT” (Regeron, Inc., priority 2012, published 2016).
Several values for one entry are separate records, joined by “and”; a condition that tells them apart may be missing. Equal entries are not always repeated.

Experiments:
Type in all cases: in vivo, mouse
[1] = test system: UVB-irradiated SKH-1 female nude mice; experiment: Wrinkle improving effects in UVB-irradiated SKH-1 hairless nude mice (Donald method); design: key: —: No wrinkle formation; *: Slightly deep and thick wrinkle; **: Slightly to moderately deep and thick wrinkle; ***: Moderately deep and thick wrinkle; ****: Moderately to severely deep and thick wrinkle; *****: Severely deep and thick wrinkle; settings: SKH-1 nude mice, U.V. irradiation Yes, 0.1% retinoic acid in 15% EtOH
Protocol: The 4-week-old SKH-1 female nude mice were purchased from Douyul Biotech, Sungnam, Korea). The animal breeding chambers were kept at 24±0.2° C. and relative humidity at 50±10% in a 12-hr light/12-hr dark cycle. The animals were permitted free access to solid feed (Central Lab. Animal Inc., Seoul, Korea) and water sterilized by irradiation and acclimated for about 2 weeks before divided them into 7 groups by random selection.
In order to induce wrinkle formation on the backside of the nude mice, UVB was irradiated to the mice three times a week for 11 weeks using the VLX-3W stimulator (Vilber Lourmat, Marne la Vallee, France) in the protocol: 30 mJ/cm^2 for the weeks 1 and 2, 40 mJ/cm^2 for the weeks 3 and 4, 50 mJ/cm^2 for the weeks 5 through 9, and 60 mJ/cm^2 for the weeks 10 and 11. […]
The wrinkle-improving effect was evaluated according to the Donald method (Hyun-Seok Kim et. al, Mech. Ageing Dev. 126:1255-61, 2005). […] In the present invention, the effects of Lipo-hPL and other skin-conditioning agents on wrinkle formation were evaluated by observing changes of the thickness and depth of wrinkles before and after treatments.

[2] = test system: Nc/Nga mice with short term atopic dermatitis; experiment: Skin damage score, short term TNCB-induced atopic dermatitis; settings: short term (6 weeks); for Overall damage: sum of erythema, edema, erosion, dryness divided by number of animals (3)
Protocol: (§1) Four weeks old male Nc/Nga mice were purchased from Orientbio Inc. (Korea) and bred at 24±2° C. and 50±10% relative humidity under 12 hours light/dark cycles. Animals were subject to 1-week acclimating period prior to the experiments.
First, the dorsal area of Nc/Nga mice was shaved, which was sensitized by applying 5% TNCB 150 µl. Then 1% TNCB solution made in olive oil was applied to the sensitized area once every week for 6 weeks.
(§2) Lipo-hPL (20 μg/ml) was topically applied 5 times per week for 6 weeks (short term) and 13 weeks (long term).
(§3) The skin damage was classified to 4 types as described in the Table 8. Based on the pictures taken every week for the inflamed dorsal area, the severity of the damage was evaluated and scored based on the 4 levels as shown below.

[3] = test system: Nc/Nga mice with long term atopic dermatitis; experiment: Skin damage score, long term TNCB-induced atopic dermatitis
Protocol: as §1
The dorsal area of Nc/Nga mice was shaved, which was sensitized by applying 5% TNCB 150 µl. Then 1% TNCB solution made in olive oil was applied to the sensitized area for total 22 times over the period of 13 weeks.
as §2, §3

[4] = test system: serum IgE; experiment: Serum IgE measurement (ELISA) in Nc/Nga mice with atopic dermatitis; settings: TNCB-treated Nc/Nga mice, short term topical application (FIG. 13), Lipo-hPL 20 μg/ml
From the text: Atopic individuals can have up to 10 times the normal level of IgE in their blood, even though this may not be a requirement for symptoms to occur as has been seen in asthmatics with normal IgE levels in their blood—recent research has shown that IgE production can occur locally in the nasal mucosa (Takhar P et al. (2005) J Immunol 174 (8): 5024-32). After the completion of the Lipo-hPL treatment for the induced inflammation, blood was drawn from the great saphenons vein and the serum was obtained by centrifugation. The serum IgE was measured using the IgE ELISA kit (GomaBiotech, Korea).

[5] = test system: Nc/Nga mice with atopic dermatitis; experiment: Skin thickness measurement on H&E stained slides, Nc/Nga mice with atopic dermatitis
From the text: Upon the completion of all necessary treatments, affected areas of the dorsal skin was severed and fixed in 4% formaldehyde and set into a block using paraffin. The paraffin block was cut into 10 um thin slices using microtome, which were set on glass slides followed by stained with hematoxylin and eosin (H&E) before subject to the microscopic observation.
The tissue slides stained with H&E were photographed in order to measure the skin thickness ranging from exoderm, fat layer to the muscle layer using the appropriate software provided for the microscope utilized for the measurement of skin thickness.

[6] = score 0-3 per animal summed over 3 animals, Lipo-hPL 20 μg/ml topical 5 times per week
[7] = long term (13 weeks), scores summed over 2 animals, Lipo-hPL 20 μg/ml topical 5 times per week

Structure (SMILES)	Changes in wrinkle depth and thickness ([1]; Appendix Table 5, topical 11 weeks, 20 μg/ml Lipo-hPL, 4.1 μg/ml Lipo-his-hPL)	Changes in wrinkle depth and thickness ([1]; topical 5 times a week for 11 weeks, 20 µg/ml Lipo-hPL, 4 µg/ml Lipo-his-hPL)	Dryness [2, 6]	Edema [2, 6]	Erosion [2, 6]	Erythema [2, 6]	Overall damage [2]	Overall damage ([2]; listed as FK506)	Dryness [3, 7]	Edema [3, 7]	Erosion [3, 7]	Erythema [3, 7]	Overall damage ([3]; long term (13 weeks), sum of erythema, edema, erosion, dryness divided by number of animals (2))	Long term skin damages score ([3]; long term, out of 10 as the most severe damage)	IgE [4]	Exodermal thickness of animals treated with TNCB only relative to treated animals [5]	Average skin thickness (epidermis, dermis and subcutaneous layer) ([5]; TNCB-treated Nc/Nga mice, long term topical application (FIG. 16))
CC1=C(/C=C/C(C)=C/C=C/C(C)=C/C(=O)O)C(C)(C)CCC1 [Retinoic acid, retinoic acid]	**	**	–	–	–	–	–	–	–	–	–	–	–	–	–	–	–
C=CC[C@@H]1/C=C(\C)C[C@H](C)C[C@H](OC)[C@H]2O[C@@](O)(C(=O)C(=O)N3CCCC[C@H]3C(=O)O[C@H](/C(C)=C/[C@@H]3CC[C@@H](O)[C@H](OC)C3)[C@H](C)[C@@H](O)CC1=O)[C@H](C)C[C@@H]2OC [Tacrolimua (FK506), Tacrolimua]	–	–	3	0	3	3	3.0	3.0±0.3	3	1.5	3.5	1.5	4.75 and 4.8	2.4±0.7	107.1 ng/mL	approximately 10 folds	408.0±23.4 μm
